From the NIST ThermoML archive (doi:10.1021/acs.jced.7b00002)
Numbers after ± are expanded uncertainties.

Assay: xn = mol fraction of the nth substance listed
Conditions: 97.6 kPa, Liquid; for mass density: Vibrating tube method; for viscosity: Capillary tube (Ostwald / Ubbelohde) method

CCCCCCCC[n+]1ccn(C)c1.[Cl-] [1-methyl-3-octylimidazolium chloride] + CC(=O)N(C)C
Conditions | mass density [kg/m3] | viscosity [mPa·s]
328.15 K, x1 = 0.139 | 938.72 ± 2 | –
328.15 K, x1 = 0.273 | 956.87 ± 2 | –
328.15 K, x1 = 0.361 | 964.59 ± 2.1 | –
328.15 K, x1 = 0.468 | 972.09 ± 2.1 | –
328.15 K, x1 = 0.602 | 979.16 ± 2.1 | –
328.15 K, x1 = 0.786 | 986.49 ± 2.1 | –
328.15 K, x1 = 0.877 | 989.12 ± 2.1 | –
328.15 K, x1 = 1 | 992 ± 2.1 | –
333.15 K, x1 = 0.139 | 934.99 ± 2 | 2.04
333.15 K, x1 = 0.273 | 953.26 ± 2 | 6.22
333.15 K, x1 = 0.361 | 961.14 ± 2 | 11.44
333.15 K, x1 = 0.468 | 968.81 ± 2.1 | 24.7
333.15 K, x1 = 0.602 | 976.05 ± 2.1 | 58.34
333.15 K, x1 = 0.786 | 983.55 ± 2.1 | 150.45
333.15 K, x1 = 0.877 | 986.24 ± 2.1 | 231.3
333.15 K, x1 = 1 | 989.17 ± 2.1 | 588.69
338.15 K, x1 = 0.139 | 931.23 ± 2 | 1.88
338.15 K, x1 = 0.273 | 949.65 ± 2 | 5.53
338.15 K, x1 = 0.361 | 957.71 ± 2 | 9.98
338.15 K, x1 = 0.468 | 965.54 ± 2.1 | 20.81
338.15 K, x1 = 0.602 | 972.96 ± 2.1 | 47.46
338.15 K, x1 = 0.786 | 980.62 ± 2.1 | 116.53
338.15 K, x1 = 0.877 | 983.37 ± 2.1 | 176.46
338.15 K, x1 = 1 | 986.38 ± 2.1 | 426.28
343.15 K, x1 = 0.139 | 927.34 ± 2 | 1.74
343.15 K, x1 = 0.273 | 946.05 ± 2 | 4.96
343.15 K, x1 = 0.361 | 954.28 ± 2 | 8.73
343.15 K, x1 = 0.468 | 962.28 ± 2.1 | 17.72
343.15 K, x1 = 0.602 | 969.87 ± 2.1 | 38.89
343.15 K, x1 = 0.786 | 977.69 ± 2.1 | 91.77
343.15 K, x1 = 0.877 | 980.49 ± 2.1 | 136.74
343.15 K, x1 = 1 | 983.63 ± 2.1 | 316.66
348.15 K, x1 = 0.139 | 923.35 ± 2 | 1.62
348.15 K, x1 = 0.273 | 942.44 ± 2 | 4.47
348.15 K, x1 = 0.361 | 950.85 ± 2 | 7.7
348.15 K, x1 = 0.468 | 959.03 ± 2 | 15.26
348.15 K, x1 = 0.602 | 966.79 ± 2.1 | 32.38
348.15 K, x1 = 0.786 | 974.78 ± 2.1 | 73.67
348.15 K, x1 = 0.877 | 977.62 ± 2.1 | 107.08
348.15 K, x1 = 1 | 980.88 ± 2.1 | 237.14
353.15 K, x1 = 0.139 | 919.35 ± 2 | 1.51
353.15 K, x1 = 0.273 | 938.85 ± 2 | 4.05
353.15 K, x1 = 0.361 | 947.43 ± 2 | 6.85
353.15 K, x1 = 0.468 | 955.78 ± 2 | 13.2
353.15 K, x1 = 0.602 | 963.72 ± 2.1 | 27.28
353.15 K, x1 = 0.786 | 971.87 ± 2.1 | 59.69
353.15 K, x1 = 0.877 | 974.77 ± 2.1 | 85.14
353.15 K, x1 = 1 | 978.13 ± 2.1 | 181.41
